Literature values as cited in patent publication US11491171B2, “Synthetic composition and method for modulating emotion and mood disorders” (GLYCOM A/S, priority 2015, dated 2022).

System: mice

| Molecule | behavioural responses during stressor exposure |
| --- | --- |
| CC(=O)N[C@H]1[C@H]([C@H](O)[C@H](O)CO)O[C@@](O[C@H]2[C@@H](O)[C@@H](CO)O[C@@H](O[C@H]3[C@H](O)[C@@H](O)C(O)O[C@@H]3CO)[C@@H]2O)(C(=O)O)C[C@@H]1O (some centres unmarked) [3′-SL, 3′-O-sialyllactose] | support normal behavioural responses |
| 6′-O-sialyllactose [6′-SL] | support normal behavioural responses |
